By mass density is commonly meant mass per unit of volume.

The structures appear in SMILES notation. ± gives the expanded uncertainty stated by the source.

The conditions of data set [1]: 293.15 K; 101.33 kPa; Liquid; Vibrating tube method.
The nature of data set [2]: wn = mass fraction of the nth substance listed. The conditions noted are these: 293.15 K; 100 kPa; Liquid; Vibrating tube method; w1 = 0.7.

`CC(=O)CC(C)C` [4-methylpentan-2-one]: the mass density in data set [1] turned out to be 800.9 ± 1.6 kg/m3.
In the case of `CO` [methanol], in data set [1], the mass density was found to be 791.9 ± 0.4 kg/m3.
Turning to `CCn1cc[n+](C)c1.F[B-](F)(F)F` [1-ethyl-3-methylimidazolium tetrafluoroborate], the mass density in data set [1] is given as 1283 ± 5.3 kg/m3.
Regarding `CCCC(C)O` (stereo unspecified) [pentan-2-ol], the mass density in data set [1] is given as 810.1 ± 1.6 kg/m3.
As for `O=[N+]([O-])O` [nitric acid] + O, the mass density in data set [2] is 1411.5 ± 2.9 kg/m3.
On to `O` [water], for which the mass density in data set [1] is listed as 998.5 ± 0.4 kg/m3.
